Reference: PubChem BioAssay AID788 (SRMLSC, 2007)
The source made the active and inactive calls. How the calls were made is not given here.

Legend:
[1] = test system: S. cerevisiae wild-type background strain growth inhibition; experiment: growth inhibition of vps1Δ apl2Δ yeast, dose response, post-Golgi transport modulator project, S. cerevisiae, background strain comparison (AID 788); settings: S. cerevisiae vps1Δ apl2Δ growth inhibition, dose response; measured here: wild-type background strain growth
[2] = test system: S. cerevisiae vps1Δ apl2Δ growth inhibition, dose response; experiment: as above

Compound | IC50 [1] [µM] | IC50 [2]
O=C1CN(C(=O)CSc2nnc(-c3ccccc3)n2Cc2ccc3c(c2)OCO3)c2ccccc2N1 | > 10 | > 10 µM (inactive)
CCOc1ccc(-c2[nH]ncc2Oc2ccccc2OCC)c(O)c1 | 16 | 7.98 µM
CC(C)COC(=O)c1ccc2c(c1O)C(=O)c1ccccc1C2=O | > 10 | > 10 µM (inactive)
O=C(NCc1ccco1)C(c1cccs1)N(C(=O)Cc1cccs1)c1ccccc1 (configuration not stated) | > 10 | > 10 µM (inactive)
O=c1c2c3c(sc2ncn1/N=C/c1ccc([N+](=O)[O-])o1)CCCC3 | 1.59 | 1.8 µM (inactive)
Cc1cccc(-c2c3c(=O)n(C)c(=O)n(C)c3cn2C2CCCCC2)c1 | > 10 | > 10 µM (inactive)
CCn1c(=O)[nH]c2cc(C(=O)N3CCN(c4ccccc4)CC3)ccc2c1=O | > 10 | > 10 µM (inactive)
CCOCCCNC(=O)c1cc2sc(Cl)cc2n1CC | > 10 | > 10 µM (inactive)
CC(=O)NC1C(c2nc3ccccc3s2)=C(c2ccccc2)C(=O)N1c1ccc(C)cc1 (configuration not stated) | 1.92 | 2.62 µM (inactive)
COc1ccc2oc(=O)c(-c3nnc(NCc4ccco4)s3)cc2c1 | > 10 | > 10 µM (inactive)
Cc1cc(N2C(=O)C3CCCN3C2c2sccc2C)no1 (configuration not stated) | > 10 | > 10 µM (inactive)
O=C(O)Cn1c(SCCOc2ccccc2F)nc2ccccc21 | > 10 | > 10 µM (inactive)
COc1ccc(C(=O)c2c(C(F)(F)F)oc3c2C(=O)c2ccccc2C3=O)cc1 | 2.32 | 22.7 µM (inactive)
COc1ccc2nc(NCCCNC(=O)c3cc(OC)c(OC)c(OC)c3)c(C#N)cc2c1 | > 10 | > 10 µM (inactive)
CCc1cc(=O)oc2cc(C)c(CN3CCCC(C)C3)c(O)c12 (configuration not stated) | > 10 | > 10 µM (inactive)
COC(=O)c1ccc(CSc2nnc(NC(C)C)s2)cc1 | > 10 | > 10 µM (inactive)
Cc1ccc(S(=O)(=O)N(CC(=O)N2CCC(C(N)=O)CC2)c2cccc(C(F)(F)F)c2)cc1 | > 10 | > 10 µM (inactive)
CCOC(=O)c1cccnc1SCc1cc(=O)n2ccccc2n1 | > 10 | > 10 µM (inactive)
CCOCCCNC(=O)C1CCN(C(=O)N(C)C)CC1 | > 10 | > 10 µM (inactive)
Cc1ccc(Cl)c(OCCCCN(C)Cc2ccccc2)c1 | > 10 | 3.13 µM
N=c1c2c(-c3ccccc3)c(-c3ccccc3)n(Cc3ccco3)c2ncn1Cc1ccco1 | 21.5 | 16 µM

Compound | IC50 [1] [µM] | IC50 [2]
C=CCc1ccc(OCC(O)CN2CCC(Cc3ccccc3)CC2)c(OC)c1 (configuration not stated) | 19.1 | 4.2 µM
COCCCn1c2nc3ccccc3nc2c2c(=O)n(-c3ccccc3OC)cnc21 | > 10 | > 10 µM (inactive)
O=C(OCn1ncc(Cl)c(Cl)c1=O)c1ccccc1Cl | 16.6 | 15.5 µM
O=C(CCl)c1ccc(Cc2ncc(C(F)(F)F)cc2Cl)s1 | 8.68 | 16.2 µM (inactive)
CC1=CC(C)(C)Nc2ccc(OC(=O)CN3C(=O)c4cccc5cccc(c45)C3=O)cc21 | > 10 | > 10 µM (inactive)
Cc1ccc(/C=N/n2cnc3sc(-c4ccccc4)cc3c2=O)o1 | > 10 | > 10 µM (inactive)
O=C(c1ccco1)N1CCN(c2ncnc3c2[nH]c2ccccc23)CC1 | > 10 | > 10 µM (inactive)
O=C(NCC(c1cccnc1)N1CCN(c2ccccc2)CC1)c1ccc2c(c1)OCO2 (configuration not stated) | > 10 | > 10 µM (inactive)
Cc1ccc(C(=O)OCn2ncc(Cl)c(Cl)c2=O)cc1 | 4.62 | 4.22 µM
COc1ccc(C2C3=C(CCCC3=O)Nc3nc(-c4cc(OC)c(OC)c(OC)c4)nn32)cc1OC (configuration not stated) | > 10 | > 10 µM (inactive)
O=C(OCn1ncc(Br)c(Br)c1=O)c1ccc(F)cc1 | 5.38 | 5.12 µM
CC(C)Cc1[nH]c(=O)c(C#N)c2c1CCC2 | > 10 | > 10 µM (inactive)
CC1CC(C)CN(CCOc2ccc(Cl)cc2Cl)C1 (configuration not stated) | > 10 | 6.68 µM
CCc1n[nH]c2c1/C(=N\O)CC(C)(C)C2 | > 10 | > 10 µM (inactive)
COc1ccc2c(c1)C(C)=CC(C)(C)N2C(=O)CSc1nnc(-c2ccc(C)cc2)o1 | > 10 | > 10 µM (inactive)
COc1ccc(CN(C(=O)Cc2cccs2)C(C(=O)NC2CCCC2)c2ccncc2)cc1 (configuration not stated) | > 10 | > 10 µM (inactive)
COc1cccc(C(=O)N2CCN(C3CCC(c4ccccc4)CC3)CC2)c1OC (configuration not stated) | 23.9 | 5.37 µM
CCCc1cc(NCCCCO)n2c(nc3ccccc32)c1C#N | > 10 | > 10 µM (inactive)
Cn1nnc2cc(C(=O)Nc3cccnc3)ccc21 | > 10 | > 10 µM (inactive)
Cc1cc(C)nc(NC(=O)CSc2nn(C)c(=S)s2)n1 | > 10 | > 10 µM (inactive)
